Broadly, the Log P is the decadic logarithm of the partition coefficient of the neutral form, usually between octanol and water. Broadly, the IC50 is the concentration that inhibits the measured activity by half.

Data set [1] has as its system HL-60 cells. As to the kind of experiment: Intracellular ROS (H2DCFDA), HL-60 cells. Format: cell-based, human. Particulars: D-pen 200 μM, cupric sulfate 10 μM, catalase 500 U/mL with D-pen plus cupric sulfate. As to the method:
(§1) FIGS. 4A-B: D-pen in the presence of cupric sulfate generates intracellular ROS in breast cancer and leukemia cells. […] Cells were incubated without (positive control) or with H2O2, H2O2 plus catalase, cupric sulfate, D-pen, D-pen plus cupric sulfate, D-pen plus cupric sulfate plus catalase in media. Unloaded cells were used as negative control. The cell associated fluorescence was measured at 30, 60, 90 min at excitation and emission of 485±20 nm and 530±25 nm, respectively. Data are reported as the DCF fluorescence (fold increase versus control).
(§2) 2′-7′-dichlorodihydrofluorescein diacetate (H2DCFDA) was used as an indicator of intracellular ROS generation. H2DCFDA is a cell permeable probe, it enters the cell and is deacetylated to a non-fluorescent product, 2′-7′-dichlorodihydrofluorescein (H2DCF) by cellular esterases and is oxidized by ROS to a fluorescent product, 2′-7′-dichlorofluorescein (DCF). MCF-7 and HL-60 cells were loaded with H2DCFDA and were seeded in a 96 well plate at a concentration of 3×10^4 cells/well. Briefly, cells were incubated with PBS buffer containing 5 μM H2DCFDA (dissolved in DMSO) for 30 min at 37° C. H2DCFDA was then removed and cells were washed twice with fresh PBS to remove excess H2DCFDA. Cells were then incubated with either drug in media or media alone (positive control). Non-H2DCFDA loaded cells were used as negative control. The fluorescence of control and sample wells was recorded at excitation 485±20 nm, emission 530±25 nm with Biotek FL600 (Biotek Instruments, Winooski, Vt.) at 30, 60, and 90 min. Then data is reported as DCF fluorescence (fold increase vs. control) corresponding to the increase of fluorescence associated with the sample cells compared to that of untreated cells.

In data set [2] the test system is MCF-7 cells. The data set can be described thus: Intracellular ROS (H2DCFDA), MCF-7 cells. It counts as cell-based, human. The conditions noted are these: for intracellular ROS generation (in words): D-pen 200 μM, cupric sulfate 10 μM, catalase 500 U/mL with D-pen plus cupric sulfate. The protocol: as §1, §2
Data set [3] deals with HL-60 cells. Format: cell-based, human. The protocol: FIG. 19: Cellular uptake of D-pen. D-pen (100 μM) was added to HL-60 (1×10^6) cells in PBS (pH 7.4) in a 24-well plate at 37° C. in 5% CO2 incubator. Cells were separated by centrifugation and the supernatant was analyzed by HPLC assay for D-pen concentration. Data represents mean±SD (n=4).
Quantitative cell uptake of free D-pen. The quantitative cell uptake of free D-pen was investigated in HL-60 cells. Briefly, D-pen (100 μM) was incubated with HL-60 (1×10^6) cells in PBS, pH 7.4 at 37° C. in a 5% CO2 incubator. Cells were incubated for 1-4 h. At pre-determined time the cells were separated by centrifugation and the supernatant was analyzed for the remaining concentration of D-pen as present as either free D-pen or D-pen disulfide using the HPLC assay previously described (Gupte and Mumper, 2007).

Data set [4] relates to HL-60 cells. As to the kind of experiment: Cytotoxicity of PGA-D-pen conjugate (MTT), HL-60. It counts as cell-based, human. Particulars: HL-60, 48 h.
Method: (§4) Cell Culture and Cytotoxicity: The P388 cells and HL-60 cells were plated at 1×10^4 and 4×10^4 cells respectively in 200 μl of medium per well in round bottom 96-well microwell plates. The MDA-MB-468 cells were plated at 1×10^4 cells/well in 96-well flat bottom microwell plates and allowed to attach overnight. Equal volumes of PGA-D-pen conjugate, PGA, D-pen, PGA+D-pen or PBS were added and the plates were incubated for 48 h (37° C., 5% CO2). 20 μl of MTT reagent (5 mg/ml in PBS; Sigma) was added to each well and re-incubated for 3-4 h to allow formation of formazan crystals. The round bottom plates were centrifuged at 200 g for 5 min. Subsequently, the supernatant was aspirated and 200 μl of DMSO were added to each well and the plate was incubated at room temperature for 1 h to lyse the cells and solubilize formazan. The optical density of each well at 570 nm was measured on a Synergy™ 2 Multi-Detection Microplate Reader (Biotek, Winooski, Vt.). Percent viability in treated wells was calculated as the percentage of optical density in control wells.
The test system of a further data set is P388 cells. The data set can be described thus: Cytotoxicity of PGA-D-pen conjugate (MTT), P388. It counts as cell-based. Particulars: P388, 48 h.
The test system of another data set is MDA-MB-468 cells. As to the kind of experiment: Cytotoxicity of PGA-D-pen conjugate (MTT), MDA-MB-468. Format: cell-based. The conditions noted are these: MDA-MB-468, 48 h.
Data set [5] deals with HL-60 cells. The data set can be described thus: Intracellular ROS (carboxy-H2DCFDA), HL-60 cells. Format: cell-based, human. Particulars: naive HL-60, carboxy-H2DCFDA 25 μM, 8 h after treatment.
For data set [6] the following is noted: cited from earlier work.
For data set [7] the following is noted: cited from earlier work. The source holds these as a separate data set.
The next data set deals with HL-60/VCR cells. As to the kind of experiment: MTT cell viability assay, HL-60/VCR leukemia cells. It counts as cell-based, human. The protocol:
(§3) FIGS. 1A-B: […] Cell viability was determined with the MTT assay. […] Data are represented as the mean±standard error (SE). […] San Diego, Calif.).
Background: Tetrazolium assays rely on reduction of a dye to a coloured formazan, in cell work by metabolically active cells.

The next data set deals with HL-60/ADR cells. The data set can be described thus: MTT cell viability assay, HL-60/ADR leukemia cells. Format: cell-based, human. The protocol: as §3
The next data set deals with BT474 cells. As to the kind of experiment: MTT cell viability assay, BT474 breast cancer cells. It counts as cell-based, human. As to the method:
FIGS. 2A-B: […] Cell viability was determined with MTT assay. […] Inhibitory concentration (IC50) was reported as mean±S.E. […] Data are represented as the mean±standard error (SE). […] San Diego, Calif.).

For data set [8], the system named is MCF-7 cells.
Method: (§5) Cell viability was determined with MTT assay. Absorbance was measured at 595 nm and adjusted to the absorbance of untreated cells. Data represent mean±SE; n=12 (two independent experiments performed in n=6). Inhibitory concentration (IC50) was reported as mean±S.E.
(§6) Cell viability was measured using the 3-(4,5-dimethyl-2-yl)-2,5-diphenylteraolium bromide (MTT) assay. The adherent breast cancer cells (MCF-7 and BT474) were seeded at an initial concentration of 3×10^4 cells/well 24 h prior to the commencement of the experiments to allow them to attach, while the suspension leukemia cells, HL-60, HL-60-/VCR and HL-60/ADR were seeded at 3×10^4 cells/well on the same day of the experiment in a 96 well plate. […] The MTT assay was performed at 48 h and absorbance was measured with the microplate reader (Biotek ELx 800, Biotek Instruments, Winooski, Vt.) at a wavelength of 595 nm. Data is reported as cell viability (% control) and corresponds to the percent viable cells compared to untreated cells.
(§7) Data are represented as the mean±standard error (SE). Each experimental group consisted of n=6 and experiments were repeated two times. […] The IC50 was calculated with GraphPad Prism® non-linear regression program.
Data set [9] has as its system HL-60 cells. As to the kind of experiment: cells. The conditions noted are these: Homo sapiens, HL-60, 48 h.
Method: Cell viability was determined with the MTT assay. Absorbance was measured at 595 nm and adjusted to the absorbance of untreated cells. Data represent mean±SE; n=12 (two independent experiments performed in n=6). Inhibitory concentrations (IC50) were reported as the mean±S.E in the figure legend.
as §6, §7
Data set [10] relates to MCF-7 cells. As to the kind of experiment: cells. The conditions noted are these: Homo sapiens, MCF7, 48 h.
Method: as §5, §6, §7
For data set [11], the system named is HL-60 cells. The conditions noted are these: cupric sulfate alone 0.1-50 μM, data not shown.
Data set [12] has as its system HL-60 cells. The data set can be described thus: In-vitro cytotoxicity of gelatin-D-pen conjugate (MTT). The conditions noted are these: cupric sulfate up to 100 μM, p>0.05 versus control.
Method: Cells (2×10^4) were incubated with gelatin alone (1 mg/mL), D-pen alone (100 μM), gelatin (1 mg/mL) plus D-pen (100 μM), and gelatin-D-pen conjugate (1 mg/mL) After every 2 day interval media was replaced with fresh media. MTT assay was performed on day 2, 4, 6, 8 and 10. Data represents mean±SD (n=6). **p<0.01 and ***p<0.001 compared to gelatin plus D-pen.
In-vitro cytotoxicity of gelatin-D-pen conjugate. The HL-60 cells were seeded at a density of 2×10^4 cells/mL in a 96 well plate. […] The above experiments were repeated with the copper pre-treated cells. Cell viability was determined at 24 and 72 h with MTT assay.
Setting [13] is: cupric sulfate alone 0.1-50 μM, data not shown.

Method for MDA-MB-468 cells: as §4
Method for P388 cells: as §4

Consider `CC(C)(S)[C@@H](N)C(=O)O` [D-pen, D-penicillamine], for which the “intracellular ROS generation (in words)” value with HL-60 cells [1] and in the data set with MCF-7 cells [2] was “failed to produce any ROS” each time. The “cell uptake of free D-pen (in words)” value with HL-60 cells [3] was “not to enter leukemia cells”. For the same compound, the “reduction in cell viability (in words)” value in the data set on HL-60 cells [4], with P388 cells and in the data set with MDA-MB-468 cells was “did not cause significant reduction in cell viability” throughout. In the data set with HL-60 cells [5], the “intracellular ROS levels (in words)” value is “no increase in intracellular ROS”. Further, the log partition coefficient (Log P) in [6] is recorded as −0.39. In addition, in data set [7], the “half-life, biphasic elimination from the blood, first value” is 6 to 7 min. For the same compound, the “half-life, biphasic elimination from the blood, second value” in [7] was 52 to 55 min.

Turning to `OO` [H2O2, hydrogen peroxide], the figures for the “fold difference between IC50 of D-pen plus cupric sulfate and IC50 of H2O2 alone” value with HL-60/VCR cells, with BT474 cells (BT474) and in the data set on MCF-7 cells [8] were ~4 fold, ~3 fold and “approximately 2 fold”, respectively. Besides, the IC50 in the data set on HL-60/VCR cells (Homo sapiens, HL60/VCR, 48 h, MTT, D-pen with cupric sulfate 10 μM) came out at 31.5 ± 1.1 µM; in the data set with HL-60/ADR cells (Homo sapiens, HL60/ADR, 48 h, MTT, D-pen (1-400 μM) with cupric sulfate 10 μM), 162.5 ± 1.1 µM; in the data set on BT474 cells (Homo sapiens, BT-474, BT474, 48 h, MTT) it was 96.1 ± 1.1 µM; with HL-60 cells [9] it was 20 ± 1 µM; in the data set on MCF-7 cells [10] it was 116 ± 1.6 µM. Moreover, the “ROS generated compared to D-pen plus cupric sulfate” value in the data set with MCF-7 cells [2] (H2O2 alone 100 μM) is listed as 5 fold.

Turning to `O=S(=O)([O-])[O-].[Cu+2]` [cupric sulfate], the “loss in cell viability” value with HL-60/VCR cells (setting [13]), with HL-60/ADR cells (setting [13]) and in the data set with HL-60 cells [11] was “did not result in any appreciable loss in cell viability” throughout. The “intracellular ROS generation (in words)” value in the data set with HL-60 cells [1] and in the data set with MCF-7 cells [2] was “failed to produce any ROS” throughout. Moreover, in the data set with HL-60 cells [12], the “effect of copper pre-treatment on cell number or viability” value is “did not result in statistically significant decrease in cell number or viability”.

Consider `CCCCCCOC(=O)[C@H](N)C(C)(C)S` [hexyl-D-pen-ester], for which the “Log P” value in [6] is on record as 1.61.

For catalase, the “intracellular ROS generation (in words)” value in the data set with HL-60 cells [1] and in the data set with MCF-7 cells [2] was “completely inhibited ROS generation” throughout.

The values above are taken from patent publication US20090092664A1, “POLYMER-METAL CHELATOR CONJUGATES AND USES THEREOF” (UNIVERSITY OF KENTUCKY RESEARCH FOUNDATION, priority 2007, published 2009).
